Reference: patent publication US9675592B2, “Methods and compositions for bacteria infections” (priority 2013, dated 2017)
Like-named read-outs stand apart in the source and are kept apart here.

Key:
[1] = system: test strain 923 pPvra-lux; experiment: Secondary screen / synergy confirmation of Top 40, relative growth with oxacillin; type: cell-based, Staphylococcus aureus; settings: Top 40 library, compound at maximum non-GI conc
Experimental: In the secondary screen each microtiter plate contained either cells in TSB alone (16 replicates), cells with oxacillin (2 μg/mL, 31 replicates), or cells with test compound and oxacillin (2 μg/mL, 49 wells). Each compound was assayed in four separate biological replicates.
Synergy Confirmation of “Top 40”. […]

[2] = system: vraSR promoter (Pvra-lux reporter in strain 923); type: cell-based, Staphylococcus aureus; settings: for RL Ox avg: Top 40 library, with oxacillin, compound at maximum non-GI conc; for vraSR repressing synergist: overall class from syn and rep
Experimental: In the secondary screen each microtiter plate contained either cells in TSB alone (16 replicates), cells with oxacillin (2 μg/mL, 31 replicates), or cells with test compound and oxacillin (2 μg/mL, 49 wells). Each compound was assayed in four separate biological replicates. […]

[3] = system: test strain (923 pPvra-lux); experiment: Growth inhibition by compound alone (maximum non-growth-inhibitory concentration); type: cell-based, Staphylococcus aureus; settings: compound alone; maximum concentration where it did NOT inhibit growth
[4] = system: test strain 923 pPvra-lux (USA300 MRSA); experiment: Primary screen, relative growth in presence of oxacillin; settings: compound 10 μM with oxacillin 2 μg/mL, absorbance 24 h, <0.50 = dead cells = hit
[5] = system: vraSR promoter (Pvra-lux reporter in strain 923); experiment: Primary screen, relative luminescence (vraSR expression)
[6] = primary screen, compound 10 μM with oxacillin 2 μg/mL, <0.50 = vraSR repressed = hit

Clc1ccc(-c2csc3ncnc(Sc4nnnn4-c4ccccc4)c23)cc1 [F1142-4597]
RG Ox avg [1]: 0.08 | RL Ox avg [2]: −0.01 | vraSR repressing synergist [2]: 1. confirmed | maximum non-GI conc [3]: 40 µg/mL | RG avg (relative growth) [4]: 0.03 | RL avg (relative luminescence) [5, 6]: 0.37

O=C(Nc1nnc(-c2ccc(OC(F)(F)F)cc2)o1)C1(c2cccs2)CCCC1 [F2517-0863]
RG Ox avg [1]: 0.92 | RL Ox avg [2]: 1.18 | vraSR repressing synergist [2]: 3. no effect | maximum non-GI conc [3]: 4 µg/mL | RG avg (relative growth) [4]: 0.02 | RL avg (relative luminescence) [5, 6]: −0.06

Cc1ccc(S(=O)(=O)Nc2ccccc2C(=O)Nc2nc3c(C)ccc(Cl)c3s2)cc1 [F1813-0711]
RG Ox avg [1]: 0.85 | RL Ox avg [2]: 0.43 | vraSR repressing synergist [2]: 2. possible | maximum non-GI conc [3]: 400 µg/mL | RG avg (relative growth) [4]: −0.02 | RL avg (relative luminescence) [5]: −0.02

O=S(=O)(Nc1cccc(-c2nc3ccccc3s2)c1)c1ccc(F)c(Cl)c1 [F3394-0078]
RG Ox avg [1]: 1.24 | RL Ox avg [2]: 0.41 | vraSR repressing synergist [2]: 3. no effect | maximum non-GI conc [3]: 40 µg/mL | RG avg (relative growth) [4]: 0.26 | RL avg (relative luminescence) [5, 6]: 0.26

CC(=O)Nc1ccc(Nc2cc(C(C)C)nc3c(-c4ccccc4)cnn23)cc1 [F3348-0533]
RG Ox avg [1]: 0.02 | RL Ox avg [2]: 0.10 | vraSR repressing synergist [2]: 1. confirmed | maximum non-GI conc [3]: 400 µg/mL | RG avg (relative growth) [4]: 0.02 | RL avg (relative luminescence) [5, 6]: 0.01

O=C(Nc1ccc(Cl)c(C(F)(F)F)c1)N1CCN(c2cc(-n3cccn3)ncn2)CC1 [F5562-0130]
RG Ox avg [1]: 1.03 | RL Ox avg [2]: 0.57 | vraSR repressing synergist [2]: 3. no effect | maximum non-GI conc [3]: 40 µg/mL | RG avg (relative growth) [4]: 0.02 | RL avg (relative luminescence) [5, 6]: −0.08

Cc1cc(SCC(=O)Nc2cccc(C(F)(F)F)c2)n2ncc(-c3ccccc3)c2n1 [F3305-0354]
RG Ox avg [1]: 1.01 | RL Ox avg [2]: 0.61 | vraSR repressing synergist [2]: 3. no effect | maximum non-GI conc [3]: 40 µg/mL | RG avg (relative growth) [4]: 0.00 | RL avg (relative luminescence) [5, 6]: 0.03

O=C(Nc1nnc(C2=COCCO2)o1)c1cccc(Br)c1 [F0608-0146]
RG Ox avg [1]: 0.96 | RL Ox avg [2]: 1.11 | vraSR repressing synergist [2]: 3. no effect | maximum non-GI conc [3]: 40 µg/mL | RG avg (relative growth) [4]: −0.05 | RL avg (relative luminescence) [5, 6]: −0.12

Cc1ccc(Nc2nc(N3CCN(Cc4ccccc4)CC3)nc3nccnc23)cc1C [F2359-0308]
RG Ox avg [1]: 0.01 | RL Ox avg [2]: 0.01 | vraSR repressing synergist [2]: 1. confirmed | maximum non-GI conc [3]: 400 µg/mL | RG avg (relative growth) [4]: 0.22 | RL avg (relative luminescence) [5, 6]: 0.07

O=C(CCCSc1ccc(Cl)cc1)Nc1nc(-c2ccccn2)cs1 [F2813-0883]
RG Ox avg [1]: 1.03 | RL Ox avg [2]: 1.28 | vraSR repressing synergist [2]: 3. no effect | maximum non-GI conc [3]: 40 µg/mL | RG avg (relative growth) [4]: −0.03 | RL avg (relative luminescence) [5, 6]: −0.01

COc1cccc2cc(C(=O)Nc3nnc(-c4ccc(Cl)cc4Cl)o3)oc12 [F2518-1563]
RG avg (relative growth) [4]: 0.00 | RL avg (relative luminescence) [5, 6]: −0.16

O=C(Nc1nnc(-c2cc3ccccc3o2)o1)c1ccc2ncsc2c1 [F2273-492]
RG avg (relative growth) [4]: 0.25 | RL avg (relative luminescence) [5, 6]: 0.24

O=C(Nc1nnc(-c2ccc(Br)cc2)o1)c1sc2ccccc2c1Cl [F2518-484]
RG avg (relative growth) [4]: 0.02 | RL avg (relative luminescence) [5, 6]: 0.02

O=C(Nc1nnc(-c2ccc(Cl)s2)o1)c1ccc(-c2ccccc2)cc1 [F1374-1060]
RG avg (relative growth) [4]: 0.17 | RL avg (relative luminescence) [5, 6]: 0.46

CC1CCCCN1S(=O)(=O)c1ccc(C(=O)Nc2nnc(C3COc4ccccc4O3)o2)cc1 (centres unmarked) [F0608-741]
RG avg (relative growth) [4]: −0.02 | RL avg (relative luminescence) [5, 6]: −0.04

COc1cc(-c2nnc(NC(=O)c3ccc(S(=O)(=O)N4CCc5ccccc5C4)cc3)o2)cc(OC)c1OC [F0559-321]
RG avg (relative growth) [4]: −0.03 | RL avg (relative luminescence) [5, 6]: −0.09

O=C(Nc1nnc(-c2ccc(F)cc2)o1)c1ccc(F)cc1 [F1374-116]
RG avg (relative growth) [4]: 0.00 | RL avg (relative luminescence) [5, 6]: 0.34

O=C(Nc1nnc(-c2ccc(F)cc2)o1)c1ccc(Oc2ccccc2)cc1 [F1374-188]
RG avg (relative growth) [4]: 0.02 | RL avg (relative luminescence) [5, 6]: 0.33

COc1cccc2cc(-c3nnc(NC(=O)c4cccc(F)c4)o3)oc12 [F2273-13]
RG avg (relative growth) [4]: −0.03 | RL avg (relative luminescence) [5, 6]: −0.06

Cc1ccc(C)c(-c2nnc(NC(=O)c3ccc(S(=O)(=O)N4CCCc5ccccc54)cc3)o2)c1 [F2518-342]
RG avg (relative growth) [4]: 0.00 | RL avg (relative luminescence) [5, 6]: −0.02

O=C(Nc1nnc(-c2cc(Cl)ccc2Cl)o1)c1cc(-c2ccccc2)nc2ccccc12 [F2518-55]
RG avg (relative growth) [4]: 0.00 | RL avg (relative luminescence) [5, 6]: −0.02

O=C(Nc1nnc(-c2ccccc2Cl)o1)c1cc(Cl)sc1Cl [F1374-58]
RG avg (relative growth) [4]: 0.03 | RL avg (relative luminescence) [5, 6]: 0.33

CCCCN(C)S(=O)(=O)c1ccc(C(=O)Nc2nnc(-c3ccc(Br)s3)o2)cc1 [F5093-101]
RG avg (relative growth) [4]: −0.02 | RL avg (relative luminescence) [5, 6]: −0.04

O=C(Nc1nnc(-c2ccc3c(c2)CCCC3)o1)c1ccc2c(c1)OCCO2 [F0608-601]
RG avg (relative growth) [4]: −0.05 | RL avg (relative luminescence) [5, 6]: −0.12

CSc1ccccc1-c1nnc(NC(=O)c2ccc(F)cc2)o1 [F2645-12]
RG avg (relative growth) [4]: 0.41 | RL avg (relative luminescence) [5, 6]: 0.51

O=C(Nc1nnc(-c2ccc3c(c2)OCCO3)o1)c1cc(-c2ccccc2)nc2ccccc12 [F0608-46]
RG avg (relative growth) [4]: −0.06 | RL avg (relative luminescence) [5, 6]: −0.10

COc1ccc(-c2nnc(NC(=O)c3ccc(Br)s3)o2)cc1 [F1374-455]
RG avg (relative growth) [4]: 0.03 | RL avg (relative luminescence) [5, 6]: 0.33

COc1cccc2cc(C(=O)Nc3nnc(-c4cc(Cl)sc4Cl)o3)oc12 [F1374-2680]
RG avg (relative growth) [4]: 0.00 | RL avg (relative luminescence) [5, 6]: 0.42

O=C(Nc1nnc(-c2ccco2)o1)c1ccc(-c2ccccc2)cc1 [F0608-410]
RG avg (relative growth) [4]: −0.07 | RL avg (relative luminescence) [5, 6]: −0.07

O=C(Nc1nnc(-c2ccc3c(c2)OCCO3)o1)c1cccc(Cl)c1 [F0608-123]
RG avg (relative growth) [4]: −0.02 | RL avg (relative luminescence) [5, 6]: −0.04

Cc1ccc(C)c(-c2nnc(NC(=O)c3cccc(Cl)c3)o2)c1 [F2518-295]
RG avg (relative growth) [4]: 0.01 | RL avg (relative luminescence) [5, 6]: −0.09

O=C(Nc1nnc(-c2ccc3c(c2)CCCC3)o1)c1sc2ccccc2c1Cl [F0608-665]
RG avg (relative growth) [4]: 0.19 | RL avg (relative luminescence) [5, 6]: −0.01

O=C(Nc1nnc(-c2ccc(Br)s2)o1)c1ccc(F)cc1 [F5093-12]
RG avg (relative growth) [4]: 0.01 | RL avg (relative luminescence) [5, 6]: −0.01

O=C(Nc1nnc(-c2cccnc2)o1)c1cccc(Br)c1 [F0608-950]
RG avg (relative growth) [4]: −0.01 | RL avg (relative luminescence) [5, 6]: −0.14

O=C(Nc1nnc(-c2cc(Cl)ccc2Cl)o1)c1ccc2c(c1)CCCC2 [F2518-85]
RG avg (relative growth) [4]: 0.00 | RL avg (relative luminescence) [5, 6]: −0.05

COc1cc(-c2nnc(NC(=O)c3cccc(C(F)(F)F)c3)o2)cc(OC)c1OC [F2517-37]
RG avg (relative growth) [4]: −0.02 | RL avg (relative luminescence) [5, 6]: −0.06

O=C(Nc1nnc(-c2ccccc2Cl)o1)c1cccc(Br)c1 [F1374-14]
RG avg (relative growth) [4]: 0.24 | RL avg (relative luminescence) [5, 6]: 0.38

O=C(Nc1nnc(-c2ccc(Cl)s2)o1)c1cc(-c2ccccc2)nc2ccccc12 [F1374-1094]
RG avg (relative growth) [4]: 0.03 | RL avg (relative luminescence) [5, 6]: 0.52
